Patent US20160158267A1, “METHODS OF PREVENTING, REDUCING OR TREATING MACULAR DEGENERATION” (Inotek Pharmaceuticals Corporation, priority 2014, published 2016)
Where “and” joins values, the source holds several entries; their conditions need not be identical. Equal entries are not always repeated. Where two headings read alike, the source gives them in different places.

What was measured:
[1] = system: BALB/c mice; assay type: in vivo; conditions: for Group mean of the number of cell layers in retinal outer nuclear layer: placebo 7.22
From the text: (§1) The rodent retina is widely used to investigate retinal diseases, as well as the response of central nervous system neurons to injury. Light-induced retinal damage (phototoxicity) selectively brings about photoreceptor cell death. Thus, this model is useful for studying the potential mechanisms underlying photoreceptor death and the subsequent retinal degeneration processes since it mimics the photoreceptor degeneration that forms the main characteristic of age-related macular degeneration.
(§2) Aliquots were removed from the refrigerator and allowed to warm to room temperature for at least 30 minutes before dosing. The positive control, BDNF, was reconstituted with 0.9% Sodium Chloride for Injection, USP at a concentration of 1 μg/μL. Any residual volumes were discarded.
(§3) Thirty-four (34) male BALB/c mice were received from Charles River, St Constant.
The test item and placebo were administered by twice-daily topical ocular instillation from Days 1 to 7, separated by at least 8 hours. The dose volume for each eye/dose was 10 μL. The formulations were stirred continuously during dose administration and were retained on wet ice between doses.
(§4) The positive control, BDNF, was administered to Group 4 animals by single bilateral intravitreal (IVT) injection on Day 1. The dose volume was 1 μL/eye. Animals were anesthetized for the dosing procedure using an isoflurane/oxygen mix and/or a sedative cocktail (ketamine 100 mg/kg; xylazine 10 mg/kg; half or quarter dose if needed given by intraperitoneal injection). Injections were made using a glass microneedle connected to a Hamilton syringe via a sclera pilot hole created with a 30 G needle. A bland lubricating ointment was applied to the eyes following dosing.
(§5) On Day 2, animals were transferred to the blue light bins (housed individually). Light fixtures with bulbs emitting blue light (460 to 490 nm; Philips F40/BB Special Blue F40T12/BB) were attached to separate housing racks directly above the cages, such that all animals received similar light exposure. The light intensity in the bins was measured using a light meter; the average intensity was 550 lux. Hiding devices/tubes and bedding were not available in the bins.
Mortality/moribundity checks were performed twice daily, once in the morning and once in the afternoon, throughout the study. Detailed examinations were performed weekly. Individual body weights were measured twice pre-treatment and at necropsy.
Electroretinography (ERG) was performed once pre-treatment and once at the end of Week 1 following overnight dark adaptation. The anesthetic used was ketamine (100 mg/kg) and xylazine (10 mg/kg).
All animals were euthanized on Day 8 and underwent exsanguination from the abdominal aorta after carbon dioxide asphyxiation. No necropsy examinations were performed.
One eye from each animal was embedded in paraffin, sectioned, mounted on glass slides, and stained with hematoxylin and eosin. The other eye was retained.
Histopathological evaluation was performed by a board-certified veterinary pathologist or veterinary pathologist with training and experience in laboratory animal pathology. The outer nuclear layer (ONL) thickness (number of cell layers) were counted at 4 locations in the retina and a microscopic evaluation of the retina, including pigmented retinal epithelial cells, was conducted. Representative images were captured for consultation and illustrative purposes.

[2] = system: BALB/c mice; assay type: in vivo
From the text: as §1, §2, §3
The dose volume for each eye/dose was 10 μL. The formulations were stirred continuously during dose administration and were retained on wet ice between doses.
as §4
as §5, with “The light intensity in the bins was measured using a light meter; the average intensity was 550 lux.” left out
The anesthetic used was ketamine (100 mg/kg) and xylazine (10 mg/kg).
All animals were euthanized on Day 8 and underwent exsanguination from the abdominal aorta after carbon dioxide asphyxiation.
One eye from each animal was embedded in paraffin, sectioned, mounted on glass slides, and stained with hematoxylin and eosin.
The outer nuclear layer (ONL) thickness (number of cell layers) were counted at 4 locations in the retina and a microscopic evaluation of the retina, including pigmented retinal epithelial cells, was conducted.

[3] = molecular target: T1, human adenosine A3 receptor (Homo sapiens, UniProt P0DMS8); test: Inhibition of forskolin-stimulated adenylyl cyclase via A3 receptor, CHO cell membranes; assay type: biochemical; conditions: membranes of CHO cells stably transfected with human A3
T1 sequence (P0DMS8 1-318): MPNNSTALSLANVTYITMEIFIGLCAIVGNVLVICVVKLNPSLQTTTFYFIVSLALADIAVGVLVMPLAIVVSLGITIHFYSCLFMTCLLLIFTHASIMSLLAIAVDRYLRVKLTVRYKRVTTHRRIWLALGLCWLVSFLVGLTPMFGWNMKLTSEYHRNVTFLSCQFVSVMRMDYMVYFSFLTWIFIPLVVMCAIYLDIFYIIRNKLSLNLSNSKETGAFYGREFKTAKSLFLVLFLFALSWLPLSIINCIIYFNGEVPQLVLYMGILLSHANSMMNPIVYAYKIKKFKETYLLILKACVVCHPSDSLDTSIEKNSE
Experimental: The A1 and A3 receptor-mediated inhibition of forskolin-stimulated adenylyl cyclase activity was tested in membranes prepared from CHO cells stably transfected with the human A1 and A3 adenosine receptors.

[4] = molecular target: A2A adenosine receptor (Homo sapiens, UniProt P29274); test: Adenosine receptor binding, A1 > A2A selectivity; conditions: ratio of Ki values
Chain of A2A adenosine receptor (P29274 whole entry): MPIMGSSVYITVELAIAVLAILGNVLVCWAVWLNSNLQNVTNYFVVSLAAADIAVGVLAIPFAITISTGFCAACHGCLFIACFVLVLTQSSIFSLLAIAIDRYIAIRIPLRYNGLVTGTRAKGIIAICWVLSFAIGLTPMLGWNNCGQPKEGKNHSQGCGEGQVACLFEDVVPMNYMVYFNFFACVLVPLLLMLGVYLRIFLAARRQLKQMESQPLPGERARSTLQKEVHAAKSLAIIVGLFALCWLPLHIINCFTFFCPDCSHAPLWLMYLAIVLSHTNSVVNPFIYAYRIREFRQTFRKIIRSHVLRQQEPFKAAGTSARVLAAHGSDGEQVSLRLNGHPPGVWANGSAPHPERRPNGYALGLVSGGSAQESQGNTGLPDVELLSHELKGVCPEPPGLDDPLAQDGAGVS
Experimental: The cell suspension is then homogenized in ice-cold hypotonic buffer (5 mM Tris/HCl mM EDTA, pH 7.4) and the homogenate is spun for 10 minutes (4° C.) at 1,000 g.

O=[N+]([O-])OC[C@H]1O[C@@H](n2cnc3c(NC4CCCC4)ncnc32)[C@H](O)[C@@H]1O [Compound A, ((2R,3S,4R,5R)-5-(6-(cyclopentylamino)-9H-purin-9-yl)-3,4-dihydroxytetrahydrofuran-2-yl)methyl nitrate]
Incidence of minimal to moderate decrease in cellularity of the retina ([1]; 300 μg/eye/day topical, placebo 6/8): 7/8 | Group mean of the number of cell layers in retinal outer nuclear layer ([1]; 300 μg/eye/day topical): 7.28 layers | Incidence of minimally decreased retinal cellularity ([1]; 600 μg/eye/day topical, other animals not affected at all): 2/8 | Group mean of the number of cell layers in retinal outer nuclear layer ([1]; 600 μg/eye/day topical): 8.56 layers | Overall effect on incidence and severity of decreased retinal cellularity ([1]; 600 μg/eye/day, 7 days twice daily topical ocular instillation): protective effect | Retinal outer nuclear layer thickness (Mean number of nuclei), individual animals ([1]; Group 2, low dose 300 μg/eye/day, animals 2001-2008, mean of 4 measurements per retina): 10.00 and 9.25 and 6.50 and 5.25 and 7.25 and 6.25 and 5.50 and 8.25 | Retinal outer nuclear layer thickness (Mean number of nuclei), individual animals ([1]; Group 3, high dose 600 μg/eye/day, animals 3001-3008, mean of 4 measurements per retina): 9.25 and 9.00 and 9.75 and 7.75 (2×) and 9.50 and 8.75 and 6.75 | Abnormalities in general appearance or condition of the animals ([1]; male BALB/c mice, dosing period, 300 or 600 μg/eye/day topical twice daily Days 1 to 7): No abnormalities were observed | ERG parameters (scotopic single flash 0 dB, A-wave and B-wave) ([1]; one week after blue light exposure, 300 or 600 μg/eye/day, versus other groups including placebo): comparable across treatment groups | Average number of cell layers in the ONL, placebo compared to treated group ([2]; 600 or 900 μg/eye/day topical): reduced in the placebo group | B-wave amplitude following 0 dB scotopic flash stimuli ([2]; 600 or 900 μg/eye/day, versus placebo control, comparable to BDNF positive control): higher | Number of nuclear bodies in the ONL based on average ONL thickness counts ([2]; low dose group (600 μg/eye/day), compared with all groups): retained the greatest number of nuclear bodies in the ONL | Overall ERG function and ONL cellularity after blue light exposure ([2]; two or three-times daily at 600 or 900 μg/eye/day topical, 1100 lux for 6 hours on Day 2): preservation of ERG function and cellularity in the ONL layer of the retina | EC50 [3]: > 100000 nM

O=[N+]([O-])OC[C@H]1O[C@@H](n2cnc3c(NC4CCOC4)ncnc32)[C@H](O)[C@@H]1O (stereo partly drawn) [Compound D, ((2R,3S,4R,5R)-3,4-dihydroxy-5-(6-(tetrahydrofuran-3-ylamino)-9H-purin-9-yl)tetrahydrofuran-2-yl)methyl nitrate]
A1 > A2A SELECTIVITY [KiA2(nm)/KiA1(nm)] [4]: >9434

B1: BDNF: Brain Derived Neurotrophic Factor, positive control given by single bilateral intravitreal injection (protein, UniProt P23560 19-247, looked up)
Neurotrophic factor BDNF …: APMKEANIRGQGGLAYPGVRTHGTLESVNGPKAGSRGLTSLADTFEHVIEELLDEDQKVRPNEENNKDADLYTSRVMLSSQVPLEPPLLFLLEEYKNYLDAANMSMRVRRHSDPARRGELSVCDSISEWVTAADKKTAVDMSGGTVTVLEKVPVSKGQLKQYFYETKCNPMGYTKEGCRGIDKRHWNSQCRTTQSYVRALTMDSKKRIGWRFIRIDTSCVCTLTIKRGR
Group mean of the number of cell layers in retinal outer nuclear layer ([1]; 1 μg/eye single IVT injection Day 1): 8.75 layers | Retinal outer nuclear layer thickness (Mean number of nuclei), individual animals ([1]; Group 4, 1 μg/eye/day IVT, animals 4001-4008, mean of 4 measurements per retina): 7.75 (2×) and 9.25 and 8.50 (2×) and 8.75 and 10.50 and 9.00 | Average number of cell layers in the ONL, placebo compared to treated group ([2]; BDNF control, 1 μg/eye IVT): reduced in the placebo group
